In PMC4102417 (PLoS Neglected Tropical Diseases, 2014):
Entries after “also recorded” stand apart in the source; their conditions may differ. Counter-ions that a name gives are not always drawn. Like-named read-outs stand apart in the source and are kept apart here.

Tests used:
[1] = in vitro; type: cell-based, murine; conditions: mouse
[2] = system: T. cruzi (Tulahuen strain); assay: microbe, parasite or virus in culture; type: cell-based, Trypanosoma cruzi; conditions: for EC50: read-out: T. cruzi EC50; for activity at 10 µM: Table S2, read-out: T. cruzi % growth @ 10 uM (Amastigotes)
Outline: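 Tulahuen parasites expressing beta-galactosidase were added (1×10^4 trypomastigotes/well) to 3T3 fibroblasts plated 24 h earlier, 4 h before compound (10 µM final).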

[3] = system: T. cruzi (Tulahuen strain); assay: Mouse model of acute T. cruzi infection; type: in vivo, BALB/c mice; conditions: oral gavage days 7-11 post-infection, doses of Table 5
Protocol: Age 8–10 week-old BALB/c female mice were obtained from Harlan Laboratories. Mice were infected with 1×10^4 tissue culture derived wild-type trypomastigotes of the Tulahuen strain by subcutaneous injection on day 0. They were administered test drugs in groups of five by oral gavage on days 7–11. All drugs were dissolved in vehicle composed of sodium carboxymethylcellulose 0.5% w/v, benzyl alcohol 0.5% v/v, Tween 80 0.4% v/v diluted in 0.9% aqueous NaCl solution. Parasitemia was quantified by examining tail blood specimens at times points indicated in Figures 2, 3, S4, and S5 as previously described.
Selected drugs identified in the above screens were tested alone or in combination in the mouse model of T. cruzi infection. In the first experiment, we focused on posaconazole and benznidazole because of their advanced clinical status for treating Chagas disease. Since benznidazole and posaconazole are known to have curative activity as monotherapies, we used sub-curative doses so that additive or synergistic interactions could be detected when used in combinations. The other drugs were administered at doses described in the literature for treating mice. Briefly, mice were gavaged once or twice daily with a given drug or combination on days 7–11 post-infection. We conducted a second experiment (Figure 3) examining the same drugs with the purpose of confirming and expanding upon the initial results shown in Figure 2.

[4] = system: 3T3 fibroblast cells; assay: cells; type: cell-based, murine; conditions: for activity at 10 µM: Mus musculus, NIH3T3, 72 h, read-out: Mammalian (3T3) cell % growth at 10 uM; for CC50: 3T3 fibroblasts, 72 hours, separate assays separated by semicolons, read-out: Mammalian cell CC50
[5] = 3T3 fibroblasts, 72 hours, separate assays separated by semicolons, read-out: Mammalian cell CC50
[6] = Trypanosoma cruzi, TULAHUEN, Fibroblast, 120 h, intracellular amastigotes, 5 days, separate assays separated by semicolons
[7] = average mammalian cell CC50 divided by average T. cruzi EC50
[8] = intracellular amastigotes, 5 days, separate assays separated by semicolons
[9] = Trypanosoma cruzi, TULAHUEN, Fibroblast, 120 h

| SMILES | CC50 [1, 5] | EC50 [2, 6] | activity at 10 µM ([4]; 10 uM, Table S2) | activity at 10 µM [2, 9] | other results |
| --- | --- | --- | --- | --- | --- |
| O=C(Cn1ccnc1[N+](=O)[O-])NCc1ccccc1 [Benznidazole] | > 25000 nM | 0.65 µM | – | – | Selectivity index [2, 7]: >40; EC50 [2, 8]: 0.6 µM; parasitemia [3]: some attenuation of parasitemia |
| CN(C/C=C/C#CC(C)(C)C)Cc1cccc2ccccc12 [Terbinafine] | 51000 nM | 17.4 µM | – | – | Selectivity index [2]: 2.9 |
| CC[C@@H]([C@H](C)O)n1ncn(-c2ccc(N3CCN(c4ccc(OC[C@@H]5CO[C@@](Cn6cncn6)(c6ccc(F)cc6F)C5)cc4)CC3)cc2)c1=O [Posaconazole] | – | – | – | – | parasitemia [3]: some attenuation of parasitemia |
| CN(C)CC/C=C1/c2ccccc2Sc2ccc(Cl)cc21 [Chlorprothixene, {3-[(9Z)-2-chloro-9H-thioxanthen-9-ylidene]propyl}dimethylamine] | 12900 nM | 2.35 µM | 97.1% | 1.8% | Selectivity index [2]: 5.2; EC50 [2, 8]: 2.6 µM |
| NCCC(O)(P(=O)(O)O)P(=O)(O)O [Pamidronate] | 25700 nM | 3 µM | – | – | Selectivity index [2, 7]: 8.6 |
| CN(C)c1ccc(O)c2c1CC1CC3C(N(C)C)C(O)=C(C(N)=O)C(=O)C3(O)C(O)=C1C2=O.Cl (centres unmarked) [Minocycline, 4,7-bis(dimethylamino)-3,10,12,12a-tetrahydroxy-1,11-dioxo-1,4,4a,5,5a,6,11,12a-octahydrotetracene-2-carboxamide hydrochloride] | > 50000 nM | 9.8 µM | 83.2% | 10.2% | Selectivity index [2]: >5.1 |
| Cl.OC(c1cc(C(F)(F)F)nc2c(C(F)(F)F)cccc12)C1CCCCN1 (centres unmarked) [Mefloquine, [2,8-bis(trifluoromethyl)quinolin-4-yl](piperidin-2-yl)methanol hydrochloride] | 12100 nM | 6.1 µM | 94.7% | 2.6% | Selectivity index [2, 7]: 2.0 |
| N=C(N)c1ccc(OCCCCCOc2ccc(C(=N)N)cc2)cc1 [Pentamidine, 2-hydroxyethane-1-sulfonic acid; 4-{[5-(4-carbamimidoylphenoxy)pentyl]oxy}benzene-1-carboximidamide] | > 50000 nM | 0.181 µM | 94.8% | 17.6% | EC50 ([2]; Trypanosoma cruzi, TULAHUEN, Fibroblast, Table S2, amastigotes): 0.18 µM; Selectivity index [2, 7]: >276 |
| Cl.Fc1ccc(C2CCNCC2COc2ccc3c(c2)OCO3)cc1 (centres unmarked) [Paroxetine, 3-[(2H-1,3-benzodioxol-5-yloxy)methyl]-4-(4-fluorophenyl)piperidine hydrochloride] | – | 3.3 µM | 100% | 6.8% | CC50 ([1]; Mammalian cell CC50 (nM)): 18800 nM; Selectivity index [2]: 4.2; EC50 [2, 8]: 5.6 µM |
| Oc1ncnc2[nH]ncc12 [Allopurinol] | > 50000 nM | 2.8 µM | – | – | Selectivity index [2]: >17.9; parasitemia [3]: slight effects |
| CSc1ccc2c(c1)N(CCC1CCCCN1C)c1ccccc1S2 (centres unmarked) [Thioridazine, 10-[2-(1-methylpiperidin-2-yl)ethyl]-2-(methylsulfanyl)-10H-phenothiazine] | 6200 nM | – | 45.7% | 19.1% | CC50 [4]: 8.66 µM |
| CCOC(=O)C1=C(COCCN)NC(C)=C(C(=O)OC)C1c1ccccc1Cl.O=S(=O)(O)c1ccccc1 (centres unmarked) [Amlodipine, 3-ethyl 5-methyl 2-[(2-aminoethoxy)methyl]-4-(2-chlorophenyl)-6-methyl-1,4-dihydropyridine-3,5-dicarboxylate; benzenesulfonic acid] | – | 1.1 µM | 100% | 13.3% | CC50 ([1]; Mammalian cell CC50 (nM)): 13000 nM; Selectivity index [2]: 11.8; parasitemia [3]: no differences compared to the vehicle treated mice; also recorded: slight effects |
| CCC(C)(C)C(=O)OC1CC(C)C=C2C=CC(C)C(CCC3CC(O)CC(=O)O3)C21 (centres unmarked) [Simvastatin, 8-[2-(4-hydroxy-6-oxooxan-2-yl)ethyl]-3,7-dimethyl-1,2,3,7,8,8a-hexahydronaphthalen-1-yl 2,2-dimethylbutanoate] | – | 0.4 µM | – | – | CC50 at 72 h [1, 5]: 4 µM |
| CN(C)CCC=C1c2ccccc2CCc2ccccc21 [Amitriptyline, dimethyl(3-{tricyclo[9.4.0.0^{3,8}]pentadeca-1(15),3,5,7,11,13-hexaen-2-ylidene}propyl)amine] | 36300 nM | 3.56 µM | 100% | 15.7% | CC50 [4]: 22 µM; Selectivity index [2, 7]: 5.7; EC50 [2, 8]: 6.6 µM |
| CN1CCC(=C2c3ccccc3CCc3sccc32)CC1 [PIZOTYLINE MALATE, 1-methyl-4-{6-thiatricyclo[8.4.0.0^{3,7}]tetradeca-1(14),3(7),4,10,12-pentaen-2-ylidene}piperidine; 2-hydroxybutanedioic acid] | – | – | 86.5% | 21.4% | – |
| Nc1nc(=S)c2[nH]cnc2[nH]1 [THIOGUANINE, 2-amino-6,7-dihydro-3H-purine-6-thione] | – | – | 98.3% | 14.8% | – |
| COc1ccc2c(c1)OC/C(=C/c1ccc(OC)c(OC)c1)C2=O [SAPPANONE A TRIMETHYL ETHER] | – | – | 74.6% | 7.5% | – |
| CN1CCCC(n2nc(Cc3ccc(Cl)cc3)c3ccccc3c2=O)CC1 (centres unmarked) [AZELASTINE HYDROCHLORIDE, 4-[(4-chlorophenyl)methyl]-2-(1-methylazepan-4-yl)-1,2-dihydrophthalazin-1-one hydrochloride] | – | – | 95.1% | 1.5% | EC50 ([2]; Trypanosoma cruzi, TULAHUEN, Fibroblast): 2.2 µM |
| O=C(O)CC[N+](=O)[O-] [BOVINOCIDIN, 3-nitropropanoic acid] | – | – | – | 14.1% | activity at 10 µM [4]: 88.6% |
| COc1ccc(-c2cc(=O)c3ccccc3o2)cc1OC [3',4'-DIMETHOXYFLAVONE, 2-(3,4-dimethoxyphenyl)-4H-chromen-4-one] | – | – | 86.4% | 24% | – |
| CC1CCC2(NC1)OC1CC3C4CCC5CC(O)CCC5(C)C4CCC3(C)C1C2C (centres unmarked) [TOMATIDINE, 5',7,9,13-tetramethyl-5-oxaspiro[pentacyclo[10.8.0.0^{2,9}.0^{4,8}.0^{13,18}]icosane-6,2'-piperidine]-16-ol hydrochloride] | – | – | 100% | 8.5% | – |
| Cc1nc2ccccn2c(=O)c1CCN1CCC(C(=O)c2ccc(F)cc2)CC1 [PIRENPERONE, 3-(2-{4-[(4-fluorophenyl)carbonyl]piperidin-1-yl}ethyl)-2-methyl-4H-pyrido[1,2-a]pyrimidin-4-one] | – | – | 91.6% | 23.1% | – |
